Experimental data taken from PubChem BioAssay (NCI).
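How tested: cells in 96-well plates exposed to compound for 48 hours at five concentrations. The concentration for 50% growth inhibition is given as GI50. TGI: concentration producing complete growth inhibition.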

How the values were obtained:
Assay in all cases: NCI-60 cell line screen, 48 h
RPMI-8226 leukemia = system: RPMI-8226 leukemia
HCC-2998 colon = system: HCC-2998 colon
CAKI-1 renal = system: CAKI-1 renal
K-562 leukemia = system: K-562 leukemia
NCI-H460 lung = system: NCI-H460 lung
SNB-19 CNS = system: SNB-19 CNS
HOP-62 NSCLC = system: HOP-62 NSCLC
COLO 205 colon = system: COLO 205 colon
A498 renal = system: A498 renal
UACC-62 melanoma = system: UACC-62 melanoma
KM12 colon = system: KM12 colon
RXF 393 renal = system: RXF 393 renal
IGROV1 ovarian = system: IGROV1 ovarian
MDA-MB-435 = system: MDA-MB-435
UO-31 renal = system: UO-31 renal
EKVX NSCLC = system: EKVX NSCLC
NCI-H522 lung = system: NCI-H522 lung
SF-295 CNS = system: SF-295 CNS
M14 melanoma = system: M14 melanoma
TK-10 renal = system: TK-10 renal
SW-620 colon = system: SW-620 colon
OVCAR-8 ovarian = system: OVCAR-8 ovarian
SK-MEL-5 melanoma = system: SK-MEL-5 melanoma
CCRF-CEM leukemia = system: CCRF-CEM leukemia
HOP-92 NSCLC = system: HOP-92 NSCLC
LOX IMVI melanoma = system: LOX IMVI melanoma
MCF7 breast = system: MCF7 breast
OVCAR-4 ovarian = system: OVCAR-4 ovarian
U251 CNS = system: U251 CNS
786-0 renal = system: 786-0 renal
DU-145 prostate = system: DU-145 prostate
BT-549 breast = system: BT-549 breast
SK-MEL-28 melanoma = system: SK-MEL-28 melanoma
PC-3 prostate = system: PC-3 prostate
OVCAR-3 ovarian = system: OVCAR-3 ovarian
HT29 colon = system: HT29 colon
NCI-H23 lung = system: NCI-H23 lung
SR leukemia = system: SR leukemia
HCT-116 colon = system: HCT-116 colon
NCI-H226 lung = system: NCI-H226 lung
T-47D breast = system: T-47D breast
SN12C renal = system: SN12C renal
MALME-3M melanoma = system: MALME-3M melanoma
SF-268 CNS = system: SF-268 CNS
HL-60(TB) leukemia = system: HL-60(TB) leukemia
NCI/ADR-RES ovarian = system: NCI/ADR-RES ovarian
HS 578T breast = system: HS 578T breast
MOLT-4 leukemia = system: MOLT-4 leukemia
MDA-MB-231 breast = system: MDA-MB-231 breast
SNB-75 CNS = system: SNB-75 CNS
SK-MEL-2 melanoma = system: SK-MEL-2 melanoma
A549 NSCLC = system: A549 NSCLC
UACC-257 melanoma = system: UACC-257 melanoma
SK-OV-3 ovarian = system: SK-OV-3 ovarian

Question: Which results are given for `CN(C)c1ccc2nc3ccc(=[N+](C)C)c([N+](=O)[O-])c-3sc2c1`?
Answer: GI50 (RPMI-8226 leukemia): 0.536 µM; TGI (RPMI-8226 leukemia): 15.9 µM; GI50 (HCC-2998 colon): 5.18 µM; TGI (HCC-2998 colon): 16.8 µM; GI50 (CAKI-1 renal): 2.59 µM; TGI (CAKI-1 renal): 13.1 µM; GI50 (K-562 leukemia): 1.94 µM; TGI (K-562 leukemia): 19.4 µM; GI50 (NCI-H460 lung): 2.59 µM; TGI (NCI-H460 lung): 15.2 µM; GI50 (SNB-19 CNS): 0.483 µM; TGI (SNB-19 CNS): 17.4 µM; GI50 (HOP-62 NSCLC): 8.6 µM; TGI (HOP-62 NSCLC): 22.2 µM; GI50 (COLO 205 colon): 1.7 µM; TGI (COLO 205 colon): 9.83 µM; GI50 (A498 renal): 7.06 µM; TGI (A498 renal): 21.9 µM; GI50 (UACC-62 melanoma): 1.1 µM; TGI (UACC-62 melanoma): 3 µM; GI50 (KM12 colon): 2.08 µM; TGI (KM12 colon): 16.4 µM; GI50 (RXF 393 renal): 4.41 µM; TGI (RXF 393 renal): 18.1 µM; GI50 (IGROV1 ovarian): 2.56 µM; GI50 (MDA-MB-435): 2.46 µM; TGI (MDA-MB-435): 11.4 µM; GI50 (UO-31 renal): 5.98 µM; TGI (UO-31 renal): 23.4 µM; GI50 (EKVX NSCLC): 1.67 µM; TGI (EKVX NSCLC): 16.2 µM; GI50 (NCI-H522 lung): 1.81 µM; TGI (NCI-H522 lung): 5.19 µM; GI50 (SF-295 CNS): 3.04 µM; TGI (SF-295 CNS): 16.6 µM; GI50 (M14 melanoma): 1.32 µM; TGI (M14 melanoma): 10.8 µM; GI50 (TK-10 renal): 7.46 µM; TGI (TK-10 renal): 23.5 µM; GI50 (SW-620 colon): 2.57 µM; TGI (SW-620 colon): 12.3 µM; GI50 (OVCAR-8 ovarian): 1.87 µM; TGI (OVCAR-8 ovarian): 10.4 µM; GI50 (SK-MEL-5 melanoma): 1.44 µM; TGI (SK-MEL-5 melanoma): 12.1 µM; GI50 (CCRF-CEM leukemia): 0.908 µM; TGI (CCRF-CEM leukemia): 15.4 µM; GI50 (HOP-92 NSCLC): 2.09 µM; TGI (HOP-92 NSCLC): 11.3 µM; GI50 (LOX IMVI melanoma): 1.32 µM; TGI (LOX IMVI melanoma): 7.85 µM; GI50 (MCF7 breast): 1.79 µM; TGI (MCF7 breast): 5.9 µM; GI50 (OVCAR-4 ovarian): 0.906 µM; TGI (OVCAR-4 ovarian): 3.04 µM; GI50 (U251 CNS): 1.21 µM; TGI (U251 CNS): 11.1 µM; GI50 (786-0 renal): 6.2 µM; TGI (786-0 renal): 21.4 µM; GI50 (DU-145 prostate): 4.75 µM; TGI (DU-145 prostate): 18.3 µM; GI50 (BT-549 breast): 8.29 µM; TGI (BT-549 breast): 21.7 µM; GI50 (SK-MEL-28 melanoma): 10.3 µM; TGI (SK-MEL-28 melanoma): 22 µM; GI50 (PC-3 prostate): 0.599 µM; TGI (PC-3 prostate): 6.78 µM; GI50 (OVCAR-3 ovarian): 0.271 µM; TGI (OVCAR-3 ovarian): 0.926 µM; GI50 (HT29 colon): 6.04 µM; TGI (HT29 colon): 25.1 µM; GI50 (NCI-H23 lung): 1.87 µM; TGI (NCI-H23 lung): 9.65 µM; GI50 (SR leukemia): 0.797 µM; TGI (SR leukemia): 17.5 µM; GI50 (HCT-116 colon): 2.45 µM; TGI (HCT-116 colon): 13.2 µM; GI50 (NCI-H226 lung): 7.97 µM; TGI (NCI-H226 lung): 22.4 µM; GI50 (T-47D breast): 2.16 µM; TGI (T-47D breast): 7.47 µM; GI50 (SN12C renal): 1.37 µM; TGI (SN12C renal): 5.26 µM; GI50 (MALME-3M melanoma): 2.38 µM; TGI (MALME-3M melanoma): 8.97 µM; GI50 (SF-268 CNS): 2.1 µM; TGI (SF-268 CNS): 13.2 µM; GI50 (HL-60(TB) leukemia): 0.302 µM; TGI (HL-60(TB) leukemia): 4.7 µM; GI50 (NCI/ADR-RES ovarian): 2.33 µM; TGI (NCI/ADR-RES ovarian): 8.13 µM; GI50 (HS 578T breast): 3.33 µM; TGI (HS 578T breast): 26.1 µM; GI50 (MOLT-4 leukemia): 2.3 µM; TGI (MOLT-4 leukemia): 10.6 µM; GI50 (MDA-MB-231 breast): 0.578 µM; TGI (MDA-MB-231 breast): 4.46 µM; GI50 (SNB-75 CNS): 2.93 µM; TGI (SNB-75 CNS): 13.3 µM; GI50 (SK-MEL-2 melanoma): 4.54 µM; TGI (SK-MEL-2 melanoma): 16.1 µM; GI50 (A549 NSCLC): 1.46 µM; TGI (A549 NSCLC): 18.1 µM; GI50 (UACC-257 melanoma): 2.85 µM; TGI (UACC-257 melanoma): 8.59 µM; GI50 (SK-OV-3 ovarian): 11.8 µM; TGI (SK-OV-3 ovarian): 28.9 µM
